The text below walks through data of patent publication US7642367B2, “Diamino-functional chalcones” (Lica Pharmaceuticals A/S, priority 2002, dated 2010).

The structures appear in SMILES notation. Converted amounts (≈) assume the structure as drawn.

The test system of data set [1] is dihydroorotate dehydrogenase (DHODH). As to the kind of experiment: DHODH assay. The format is biochemical. The conditions noted are these: test concentration not given. As for the experimental part: 100 μl chalcone or 0.1 M Tris-HCl pH 8.0 is added to a well in a 96-wells microtiter plate. Then 50 μl enzyme dilution is added. The microtiter plate is placed in the Powerwavex340 and the enzymatic reactions starts when adding 100 μl assay mixture. The reaction are measured every 20 sec. for 10 min. The samples with chalcones are compared with the samples with 0.1 M Tris-HCl pH 8.0 and the percent inhibition is calculated.
Enzyme dilution: The solution of recombinant purified enzyme is dissolved in 0.1 M Tris-HCl pH 8 to give an initial velocity of 0.04-0.05 ΔA/min.
2,6-dichlorophenolindophenol (DCIP)-stock solution: 40 mg DCIP and 10 ml 99% Ethanol are mixed for 10 min at RT. Then 100 μl 1.0 M Tris-HCl pH 8 and milliQ H20 are added to a final volume of 100 ml. The A600 of the DCIP-stock solution are measured in a microtiter plate on the Powerwavex340 (Bio-Tek instruments, Inc.)
[…]-stock solution: 25 mM dihydroorotate stock-solution is prepared by first dissolving in the same amount of mol NaOH and then miliQ H20 is added to the final volume.
Assay mix (10 ml solution): 600 μl of DHODH-stock solution and X ml (depending on the A600 value of stock-solution) DCIP to a final A600=2.5 are mixed. Then 0.1 M Tris-HCl pH 8.0 are added to a final volume of 10 ml.
Preparation of compound solution: A 10 mM stock-solution of compound (e.g. a chalcone derivative) is made in dimethylsulfoxid (DMSO). The compound is then diluted in 0.1 M Tris-HCl pH 8 to the test concentrations. The final DMSO concentration in the sample is 10%

For a further data set, the system named is non-fastidious bacteria. As to the kind of experiment: Activity against non-fastidious bacteria (panel). The settings on record: for activity against Gram-positive non-fastidious bacteria: pathogenic Gram-positive bacteria.
For a further data set, the system named is S. aureus ATCC29213. As to the kind of experiment: Killing curve (time-kill) / broth macrodilution MIC. It counts as cell-based, Staphylococcus aureus. The settings on record: for bactericidal or bacteriostatic (time-kill curve): S. aureus ATCC29213, concentrations above the MIC.
In data set [2] the test system is Bacteroides fragilis, Clostridium perfringens, Clostridium difficele. The format is cell-based. The conditions noted are these: single concentration of compound (100 μM).
Data set [3] deals with Staphylococcus aureus ATCC29213. As to the kind of experiment: MIC determination in broth microdilution assay. The conditions noted are these: A: Staphylococcus aureus ATCC29213; NA: no activity. (Dilution methods test growth across graded concentrations, often in twofold steps.)
Data set [4] deals with Staphylococcus aureus ATCC33591 (resistant to methicillin). As to the kind of experiment: MIC determination in broth microdilution assay. The conditions noted are these: B: Staphylococcus aureus ATCC33591 (resistant to methicillin); NA: no activity.
Data set [5] relates to Staphylococcus intermedius #2357 (clinical isolate). As to the kind of experiment: MIC determination in broth microdilution assay. The conditions noted are these: C: Staphylococcus intermedius #2357; NA: no activity.
The subject of data set [6] is Enterococcus faecalis ATCC29212. As to the kind of experiment: MIC determination in broth microdilution assay. The conditions noted are these: D: Enterococcus faecalis ATCC29212; NA: no activity.
In data set [7] the test system is Enterococcus faecium #17501 (vancomycin-resistant clinical isolate). As to the kind of experiment: MIC determination in broth microdilution assay. The settings on record: E: Enterococcus faecium #17501 (vancomycin-resistant); NA: no activity.
The subject of data set [8] is Streptococcus pneumoniae #998 (clinical isolate). As to the kind of experiment: MIC determination in broth microdilution assay. The settings on record: F: Streptococcus pneumoniae #998; NA: no activity.
In another data set the test system is Eschericia coli ESS. As to the kind of experiment: MIC determination in broth microdilution assay. The conditions noted are these: for MIC: H: Eschericia coli ESS, NA: no activity.
Data set [9] in a line: Determination of metabolic stability (liver microsomes). The format is in vitro ADME, Wistar rat. The conditions noted are these: for Metabolic turn-over in vitro: rat liver microsomes, 20 μM, 15 min at 37° C. As for the experimental part:
incubations were performed with Wistar rat liver microsomes (0.25 mg/ml) in 2% sodium bicarbonate solution. NADP (0.13 mg/ml), glucose-6-phosphate (0.63 mg/ml) and glucose-6-phosophate dehydrogenase (0.38 units/ml) were used as NADPH generation system and UDPGA (0.48 mg/ml) was added to include the phase II reaction, glucuronic acid conjugation, in the assay. After 5 minutes of pre-incubation the reaction was started by addition of the test article to give a final concentration of 20 μM. Samples were incubated for 15 min at 37° C. and the reactions were terminated by addition of equal volumes of acetonitrile. Blank incubations were performed at the same concentration but without addition of microsomes. Both blank and microsome-containing samples were made in replicats of three. Prior to analysis samples were centrifuged for 10 min. at 3500 rpm, HPLC system:
Initial conditions were 40% mobile phase A (acetonitrile) and 60% mobile phase B (10 mM ammonium acetate pH 9.5). During the first 20 minutes, the mobile phase was changed via a linear gradient to 90% A and 10% B. This was followed by a 5 minutes linear gradient to initial conditions, which were maintained for 5 min. The flow rate was 0.20 ml/min and injection volume 10 μl.
For orientation: Liver microsomes are vesicles of endoplasmic reticulum, rich in cytochrome P450 enzymes.

The test system of data set [10] is Eschericia coli ATCC25922. As to the kind of experiment: MIC determination in broth microdilution assay. The conditions noted are these: for MIC: G: Eschericia coli ATCC25922, NA: no activity.

For the compound `COc1ccc(C(=O)/C=C/c2ccccc2)cc1` [4′MC, 4′methoxy chalcone, reference compound], in data set [1], the “Inhibition of DHODH” value came out at 7%. Besides, in the data set with non-fastidious bacteria, the “activity against Gram-positive non-fastidious bacteria” value was “no antibacterial effect at all”.
For the compound `CN(C)CCN(C)c1cccc(C(=O)/C=C/c2ccc(Cl)cc2Cl)c1` [B015, (E)-3-(2,4-Dichloro-phenyl)-1-{3-[(2-dimethylamino-ethyl)-methyl-amino]-phenyl}-propenone], the “Inhibition of DHODH” value in [1] is 25%.
Still for that read-out and setting: with `CN(C)CCN(C)c1cccc(C(=O)/C=C/c2cc(F)ccc2F)c1` [B017, (E)-3-(2,5-Difluoro-phenyl)-1-{3-[(2-dimethylamino-ethyl)-methyl-amino]-phenyl}-propenone] the figure was 23%; with `CN(C)CCN(C)c1cccc(C(=O)/C=C/c2ccc(Br)cc2F)c1` [B018, (E)-3-(4-Bromo-2-fluoro-phenyl)-1-{3-[(2-dimethylamino-ethyl)-methyl-amino]-phenyl}-propenone], 22%.
Broadly, the MIC is the lowest concentration that inhibits growth of the organism. A higher MIC goes with weaker potency. `CCCCN(CCCC)c1cccc(/C=C/C(=O)c2ccccc2NCCN(C)C)c1` [B041, (E)-3-(3-Dibutylamino-phenyl)-1-[2-(2-dimethylamino-ethylamino)-phenyl]-propenone]: in the data set on S. aureus ATCC29213 (S. aureus ATCC29213), the “MIC (time-kill curve figure)” value came out at 9.4 µM (≈ 3.96 µg/mL). Besides, the “dependence of the bactericidal action” value with S. aureus ATCC29213 (S. aureus ATCC29213) was “primarily dependent on incubation time”. Besides, the “bactericidal or bacteriostatic (time-kill curve)” value with S. aureus ATCC29213 was “bactericidal”. Moreover, the “activity against anaerobic bacteria” value in data set [2] was “activity against all microorganisms within the test panel”. In addition, the MIC worked out at 4.7 µM (≈ 1.98 µg/mL) in [3]; 4.7 µM (≈ 1.98 µg/mL) in data set [4]; 9.4 µM (≈ 3.96 µg/mL) in data set [5]; 9.4 µM (≈ 3.96 µg/mL) in data set [6]; 9.4 µM (≈ 3.96 µg/mL) in data set [7]; 18.8 µM (≈ 7.93 µg/mL) in [8]. In the data set on Eschericia coli ESS, this compound returned a minimum inhibitory concentration (MIC) of 300.0 µM (≈ 126 µg/mL).
For `COc1ccc(C(=O)/C=C/c2ccccc2N(C)CCN(C)C)c(F)c1` [B058, (E)-3-{2-[(2-Dimethylamino-ethyl)-methyl-amino]-phenyl}-1-(2-fluoro-4-methoxy-phenyl)-propenone], the “Inhibition of DHODH” value in data set [1] amounted to 17%.
For the compound `Cc1cc(C)cc(-c2ccc(N3CCN(C)CC3)c(/C=C/C(=O)c3cccc(NCCN(C)C)c3)c2)c1` [B101, (E)-1-[3-(2-Dimethylamino-ethylamino)-phenyl]-3-[3′,5′-dimethyl-4-(4-methyl-piperazin-1-yl)-biphenyl-3-yl]-propenone], in [9], the “Metabolic turn-over in vitro” value amounted to 3%. For the same compound, the MIC in data set [3] turned out to be 4.7 µM (≈ 2.33 µg/mL); in [4] it was 4.7 µM (≈ 2.33 µg/mL); in data set [5] it was 9.4 µM (≈ 4.67 µg/mL); in data set [6], 4.7 µM (≈ 2.33 µg/mL); in data set [7], 4.7 µM (≈ 2.33 µg/mL); in data set [8], 4.7 µM (≈ 2.33 µg/mL). Moreover, the values for the MIC (in data set [10]; in the data set with Eschericia coli ESS) were 9.4 µM (≈ 4.67 µg/mL) and 4.7 µM (≈ 2.33 µg/mL), respectively. In addition, in the data set on non-fastidious bacteria, the “activity against Gram-positive non-fastidious bacteria” value is on record as “increased potency”.
As for `COc1ccc(C(=O)/C=C/c2cc(-c3cc(C)cc(C)c3)ccc2N2CCN(C)CC2)c(CN(C)C)c1` [B102, (E)-1-(2-Dimethylaminomethyl-4-methoxy-phenyl)-3-[3′,5′-dimethyl-4-(4-methyl-piperazin-1-yl)-biphenyl-3-yl]-propenone], the MIC in data set [3] worked out at 4.7 µM (≈ 2.34 µg/mL); in data set [4], 9.4 µM (≈ 4.68 µg/mL); in data set [5] it was 18.8 µM (≈ 9.36 µg/mL); in [6], 9.4 µM (≈ 4.68 µg/mL); in data set [7] it was 9.4 µM (≈ 4.68 µg/mL); in data set [8], 4.7 µM (≈ 2.34 µg/mL). The minimal inhibitory concentration (MIC) in data set [10] came out at 37.5 µM (≈ 18.7 µg/mL); against Eschericia coli ESS it was 4.7 µM (≈ 2.34 µg/mL). Also, the “activity against Gram-positive non-fastidious bacteria” value in the data set with non-fastidious bacteria is on record as “increased potency”.
Regarding `Cc1cc(C)cc(-c2ccc(N3CCN(C)CC3)c(/C=C/C(=O)c3ccccc3N)c2)c1` [B115, (E)-1-(2-Amino-phenyl)-3-[3′,5′-dimethyl-4-(4-methyl-piperazin-1-yl)-biphenyl-3-yl]-propenone], the “Metabolic turn-over in vitro” value in [9] was 0%. Further, the MIC was 4.7 µM (≈ 2 µg/mL) in data set [3]; 4.7 µM (≈ 2 µg/mL) in data set [4]; 4.7 µM (≈ 2 µg/mL) in data set [5]; 4.7 µM (≈ 2 µg/mL) in data set [6]; 4.7 µM (≈ 2 µg/mL) in [7]; 9.4 µM (≈ 4 µg/mL) in [8]. This compound registered an MIC against Eschericia coli ESS of 9.4 µM (≈ 4 µg/mL). The “activity against Gram-positive non-fastidious bacteria” value in the data set with non-fastidious bacteria is on record as “increased potency”.
As to `Cc1cc(C)cc(-c2ccc(N3CCNCC3)c(/C=C/C(=O)c3cccc(NCCN(C)C)c3)c2)c1` [B116, (E)-1-[3-(2-Dimethylamino-ethylamino)-phenyl]-3-(3′,5′-dimethyl-4-piperazin-1-yl-biphenyl-3-yl)-propenone], the minimum inhibitory concentration (MIC) in data set [3] is 2.4 µM (≈ 1.16 µg/mL); in data set [4] it was 4.7 µM (≈ 2.27 µg/mL); in data set [5], 4.7 µM (≈ 2.27 µg/mL); in data set [6], 4.7 µM (≈ 2.27 µg/mL); in data set [7], 4.7 µM (≈ 2.27 µg/mL); in data set [8], 4.7 µM (≈ 2.27 µg/mL). The MIC (in [10]; in the data set on Eschericia coli ESS) was 4.7 µM (≈ 2.27 µg/mL) in each case. Besides, the “activity against E. coli ATCC25922” value in data set [10] is “high activity”. For the same compound, the “activity against ESS strain of E. coli” value in the data set on Eschericia coli ESS is given as “high activity”.
Turning to `COc1ccc(C(=O)/C=C/c2cc(-c3cc(C)cc(C)c3)ccc2N2CCNCC2)c(CN(C)C)c1` [B117, (E)-1-(2-Dimethylaminomethyl-4-methoxy-phenyl)-3-(3′,5′-dimethyl-4-piperazin-1-yl-biphenyl-3-yl)-propenone], the MIC in data set [3] is 4.7 µM (≈ 2.27 µg/mL); in data set [4], 4.7 µM (≈ 2.27 µg/mL); in [5], 9.4 µM (≈ 4.55 µg/mL); in data set [6] it was 4.7 µM (≈ 2.27 µg/mL); in data set [7] it was 4.7 µM (≈ 2.27 µg/mL); in [10], 18.8 µM (≈ 9.09 µg/mL). For the same compound, the minimal inhibitory concentration (MIC) in the data set with Eschericia coli ESS amounted to 4.7 µM (≈ 2.27 µg/mL).
With `COc1ccc(C(=O)/C=C/c2cc(-c3ccccc3OC)ccc2N2CCCN(C)CC2)c(F)c1` [B143, (E)-1-(2-Fluoro-4-methoxy-phenyl)-3-[2′-methoxy-4-(4-methyl-[1,4]diazepan-1-yl)-biphenyl-3-yl]-propenone], the “MIC (time-kill curve figure)” value against S. aureus ATCC29213 (S. aureus ATCC29213) turned out to be 9.4 µM (≈ 4.46 µg/mL). Besides, the “bactericidal or bacteriostatic (time-kill curve)” value in the data set on S. aureus ATCC29213 is recorded as “bactericidal”.
For `C=CC(C)(C)c1cc(/C=C/C(=O)c2ccc(O)cc2)c(OC)cc1O` [LicA, Licochalcone A], the “Inhibition of DHODH” value in [1] came to 25%. Moreover, the “turn-over in vitro” value in [9] came out at 100%. Moreover, the “Metabolic turn-over in vitro” value in data set [9] is 100%. For the same compound, the minimum inhibitory concentration (MIC) in [8] amounted to 75.0 µM (≈ 25.4 µg/mL); in the data set on Eschericia coli ESS, 300.0 µM (≈ 102 µg/mL). The “activity against Gram-positive non-fastidious bacteria” value in the data set on non-fastidious bacteria is given as “moderate bactericidal activity”. Also, the “activity against Escherichia coli” value in the data set with non-fastidious bacteria (prototype pathogenic Gram-negative bacterium) is “only modest or no activity”.
